In ChEMBL document CHEMBL5518178 (Eur J Med Chem, 2024):
The source made the active and inactive calls. No cut-off for these calls is given here.

Columns and labels:
MGC-803 [1] = experiment: Induction of apoptosis in human MGC-803 cells assessed as caspase-9 cleavage at 10 to 40 nmol/L incubated for 48 hrs by Western blotting; assay type: functional, cell-based; settings: dose 10-40 nmol/L
MGC-803 [2] = experiment: Induction of apoptosis in human MGC-803 cells assessed as viable cells at 40 nmol/L incubated for 48 hrs by Annexin V-FITC/propidium iodide staining based flow cytometer analysis (reference value: 93.08 %); assay type: functional; settings: read-out: Activity
MGC-803 [3] = experiment: Induction of apoptosis in human MGC-803 cells assessed as early apoptotic cells at 40 nmol/L incubated for 48 hrs by Annexin V-FITC/propidium iodide staining based flow cytometer analysis (reference value: 4.38 %); assay type: functional
MGC-803 [4] = experiment: Antiproliferative activity against human MGC-803 cells assessed as decrease in cell density at 10 to 40 nmol/L incubated for 48 hrs by bright field microscopic analysis; assay type: functional, cell-based; settings: dose 10-40 nmol/L
[5] = Toxicity in BALB/c-nude mouse xenografted with human MGC-803 cells assessed as alteration in lung tissue at 30 mg/kg/day, ip administered for 18 days by hematoxylin and eosin staining based analysis; assay type: organism-based; settings: in vivo, 432 h, time 18 day
MGC-803 [6] = experiment: Antiproliferative activity against human MGC-803 cells assessed as reduction in cell viability incubated for 12 to 48 hrs by MTT assay; assay type: functional, cell-based; settings: dose 20-80 µM, time 12-48 hrs
MGC-803 [7] = experiment: Induction of apoptosis in human MGC-803 cells assessed as viable cells at 10 nmol/L incubated for 48 hrs by Annexin V-FITC/propidium iodide staining based flow cytometer analysis (reference value: 93.08 %); assay type: functional; settings: read-out: Activity
MGC-803 [8] = experiment: Antiproliferative activity against human MGC-803 cells assessed as increase in nuclear concentration at 10 to 40 nmol/L incubated for 48 hrs by DAPI staining based fluorescence microscopic analysis; assay type: functional, cell-based; settings: dose 10-40 nmol/L
MGC-803 [9] = experiment: Induction of cell cycle arrest in human MGC-803 cells assessed as increase in G2/M phase cells at 10 to 40 nmol/L incubated for 24 hrs by RNAse/propidium iodide staining based flow cytometry analysis relative to control; assay type: functional; settings: dose 10-40 nmol/L, at 10 to 40 nM
MGC-803 [10] = experiment: Induction of apoptosis in human MGC-803 cells assessed as increase in cleaved PARP at 10 to 40 nmol/L incubated for 48 hrs by Western blotting; assay type: functional, cell-based; settings: dose 10-40 nmol/L
MGC-803 [11] = experiment: Antiproliferative activity against human MGC-803 cells assessed as increase in nuclear brightness at 10 to 40 nmol/L incubated for 48 hrs by DAPI staining based fluorescence microscopic analysis; assay type: functional, cell-based; settings: dose 10-40 nmol/L
HCT-116 = experiment: Antiproliferative activity against human HCT-116 cells assessed as inhibition of cell growth incubated for 48 hrs by MTT assay; assay type: functional, cell-based; settings: HCT-116, 48 h
MGC-803 [12] = experiment: Anti-migratory activity against human MGC-803 cells assessed as inhibition of cell migration at 10 to 30 nmol/L measured for 48 hrs by crystal-violet staining based transwell migration assay; assay type: functional; settings: dose 10-30 nmol/L
MGC-803 [13] = experiment: Induction of apoptosis in human MGC-803 cells assessed as necrotic cells at 40 nmol/L incubated for 48 hrs by Annexin V-FITC/propidium iodide staining based flow cytometer analysis (reference value: 0.32 %); assay type: functional
MGC-803 [14] = experiment: Induction of cell cycle arrest in human MGC-803 cells at M phase assessed as increase in p-Histone H3 level at 10 to 40 nmol/L incubated for 48 hrs by Western blotting; assay type: functional, cell-based; settings: dose 10-40 nmol/L
MGC-803 [15] = experiment: Induction of apoptosis in human MGC-803 cells assessed as necrotic cells at 20 nmol/L incubated for 48 hrs by Annexin V-FITC/propidium iodide staining based flow cytometer analysis (reference value: 0.32 %); assay type: functional
MGC-803 [16] = experiment: Induction of apoptosis in human MGC-803 cells assessed as late apoptotic cells at 40 nmol/L incubated for 48 hrs by Annexin V-FITC/propidium iodide staining based flow cytometer analysis (reference value: 2.22 %); assay type: functional

SMILES: COc1ccc2c(c1)CCCN2c1cc(=O)oc2ccccc12
- Activity (MGC-803 [1]): Active
- viability at 0.04 µM (MGC-803 [2]): 39.1%
- Activity (MGC-803 [3]): 41.97%
- Activity (MGC-803 [4]): Active
- Activity [5]: Non-Toxic
- Activity (MGC-803 [6]): Dose-Dependent Effect
- viability at 0.01 µM (MGC-803 [7]): 92.2%
- Activity (MGC-803 [8]): Active
- Activity (MGC-803 [9]): 18%
- Activity (MGC-803 [10]): Active
- Activity (MGC-803 [11]): Active
- IC50 (HCT-116): 0.081 µM
- Activity (MGC-803 [12]): Active
- Activity (MGC-803 [13]): 1.3%
- Activity (MGC-803 [14]): Active
- Activity (MGC-803 [15]): 0.12%
- Activity (MGC-803 [16]): 17.65%
